This is an account of results in US10322107B2, “N-methyl-N-(1-phenyl-2-(1-pyrrolidinyl)ethyl)-2-aminophenylacetamide derivatives agonists for the kappa opioid receptor” (Nektar Therapeutics, priority 2014, dated 2019).

SMILES strings stand for the structures. Where two headings read alike, the source gives them in different places.

Test [1] deals with recombinant human kappa (KOR) opioid receptor (Homo sapiens, UniProt P41145). Kind of test: Competitive radioligand binding at KOR ([3H]diprenorphine), CHO-K1 membranes.
Test [2] has as its target T1, recombinant human mu (MOR) opioid receptor (Homo sapiens, UniProt P35372).
T1 construct: expressed in transfected cells; host or cells: CHO-K1 cells (membranes)
Kind of test: Competitive radioligand binding at MOR ([3H]naloxone), single concentration, CHO-K1 membranes. The following applies: 10 μM test compound; percent inhibition of specific [3H]naloxone (4 nM) binding; read-out: Mu Opioid Receptor Mu Receptor Inhibition % inhib @ 10 uM. The method, then: The binding affinities of certain compounds of the present invention were evaluated using radioligand binding assays in membranes prepared from CHO-K1 cells expressing recombinant human kappa (KOR) or mu (MOR) opioid receptors.
Competition binding experiments were conducted by incubating membrane protein to equilibrium in triplicate in the presence of a fixed concentration of radioligand and increasing concentrations of test compound for evaluation of binding to KOR or single concentration (10 μM) of test compound for evaluation of binding to MOR in 101 μL final volume. The radioligands used were specific for each receptor type, and the assay conditions are described in Table 1. Following incubations, the membranes were rapidly filtered through GF/B filter plate (presoaked with 0.5% polyethyleneimine), washed five times with cold 50 mM Tris-HCl, pH 7.5, and the bound radioactivity was then measured by liquid scintillation counting. Non-specific binding was measured in the presence of excess ligand; this value was subtracted from the total binding to yield the specific binding at each test concentration.
Ki (affinity of test compound) was obtained using the Cheng Prusoff correction using experimental Kd (affinity of radioligand) values that were previously determined under these assay conditions. For MOR binding, compounds were tested at one concentration, 10 μM, to evaluate its ability to inhibit specific radioligand binding. The values are expressed as percent inhibition of specific binding and greater than 50% inhibition of binding was considered to be significant.

In test [3] the target is T2, KOR (kappa opioid receptor) (Homo sapiens, UniProt P41145).
T2 construct: expressed in transfected cells
Put plainly: Inhibition of cAMP accumulation in forskolin-stimulated CHO-K1 cells stably expressing KOR. Type of test: cell-based.

[4] abbreviates: Cheng Prusoff correction using experimental Kd of radioligand, read-out: Kappa Opioid Receptor Ki.
[5] abbreviates: read-out: Kappa Opioid Receptor IC50.

As for `CN(C(=O)Cc1ccc(Cl)c(Cl)c1)[C@H](CN1CCCC1)c1cccc(NS(=O)(=O)c2ccc(C#N)c(C(F)(F)F)c2)c1` [Example 1, (S)—N-(1-(3-(4-cyano-3-(trifluoromethyl)phenylsulfonamido)phenyl)-2-(pyrrolidin-1-yl)ethyl)-2-(3,4-dichlorophenyl)-N-methylacetamide], the Ki in test [1] (setting [4]) was 4.84 nM. Also, in test [1] (setting [5]), the IC50 turned out to be 37.1 nM. For the same molecule, the inhibition at 10 µM in test [2] is 89%. Moreover, it took 2 nM to reach a half-maximal effect in test [3] (EC50).

As for `CN(C(=O)Cc1ccc(Cl)c(Cl)c1)[C@H](CN1CCCC1)c1cccc(NS(=O)(=O)c2cn(C)c(=O)n(C)c2=O)c1` [Example 2, (S)-2-(3,4-dichlorophenyl)-N-(1-(3-(1,3-dimethyl-2,4-dioxo-1,2,3,4-tetrahydropyrimidine-5-sulfonamido)phenyl)-2-(pyrrolidin-1-yl)ethyl)-N-methylacetamide], the inhibition constant Ki in test [1] (setting [4]) turned out to be 0.7 nM. The half-inhibitory concentration (IC50) in test [1] (setting [5]) came out at 5.36 nM. In test [2], the inhibition at 10 µM is 87.1%. For the same molecule, the 50% effective concentration (EC50) in test [3] amounted to 0.311 nM.

For the molecule `CN(C(=O)Cc1ccc(Cl)c(Cl)c1)[C@H](CN1CCCC1)c1cccc(NS(=O)(=O)c2ccc(Cl)nc2)c1` [Example 3, (S)—N-(1-(3-(6-chloropyridine-3-sulfonamido)phenyl)-2-(pyrrolidin-1-yl)ethyl)-2-(3,4-dichlorophenyl)-N-methylacetamide], the Ki in test [1] (setting [4]) turned out to be 0.36 nM. Further, the half-inhibitory concentration (IC50) in test [1] (setting [5]) stood at 2.79 nM. In addition, the inhibition at 10 µM in test [2] came to 94.2%. This molecule also returned an EC50 in test [3] of 0.29 nM.

For `CN(C(=O)Cc1ccc(Cl)c(Cl)c1)[C@H](CN1CCCC1)c1cccc(NS(=O)(=O)c2cccnc2Cl)c1` [Example 4, (S)—N-(1-(3-(2-chloropyridine-3-sulfonamido)phenyl)-2-(pyrrolidin-1-yl)ethyl)-2-(3,4-dichlorophenyl)-N-methylacetamide], the inhibitory constant (Ki) in test [1] (setting [4]) is 6.48 nM. Further, the 50% inhibitory concentration (IC50) in test [1] (setting [5]) was found to be 49.7 nM. The inhibition at 10 µM in test [2] is 91.8%. In test [3], this molecule had an EC50 of 1.75 nM.

For the molecule `CN(C(=O)Cc1ccc(Cl)c(Cl)c1)[C@H](CN1CCCC1)c1cccc(NS(=O)(=O)c2cn(C)nc2C(F)(F)F)c1` [Example 5, (S)-2-(3,4-dichlorophenyl)-N-methyl-N-(1-(3-(1-methyl-3-(trifluoromethyl)-1H-pyrazole-4-sulfonamido)phenyl)-2-(pyrrolidin-1-yl)ethyl)acetamide], the Ki in test [1] (setting [4]) was determined as 1.01 nM. Moreover, the 50% inhibitory concentration (IC50) in test [1] (setting [5]) came out at 7.74 nM. Also, the inhibition at 10 µM in test [2] was determined as 97%. The molecule further showed an EC50 in test [3] of 1.35 nM.

Take `Cc1noc(C)c1S(=O)(=O)Nc1cccc([C@@H](CN2CCCC2)N(C)C(=O)Cc2ccc(Cl)c(Cl)c2)c1` [Example 6, (S)-2-(3,4-dichlorophenyl)-N-(1-(3-(3,5-dimethylisoxazole-4-sulfonamido)phenyl)-2-(pyrrolidin-1-yl)ethyl)-N-methylacetamide]: the Ki in test [1] (setting [4]) was 0.39 nM. Further, in test [1] (setting [5]), the IC50 turned out to be 3.01 nM. Further, the inhibition at 10 µM in test [2] stood at 84.6%. This molecule also displayed an EC50 in test [3] of 1.15 nM.

In the case of `COCCN(C)S(=O)(=O)Nc1cccc([C@@H](CN2CCCC2)N(C)C(=O)Cc2ccc(Cl)c(Cl)c2)c1` [Example 7], in test [1] (setting [4]), the inhibitory constant (Ki) turned out to be 0.09 nM. The IC50 in test [1] (setting [5]) stood at 0.67 nM. In test [2], the inhibition at 10 µM is 99.9%. This molecule also gave an EC50 in test [3] of 0.19 nM.

In the case of `CC(O)CS(=O)(=O)Nc1cccc([C@@H](CN2CCCC2)N(C)C(=O)Cc2ccc(Cl)c(Cl)c2)c1` (stereo partly drawn) [Example 8, 2-(3,4-dichlorophenyl)-N-((1S)-1-(3-(2-hydroxypropylsulfonamido)phenyl)-2-(pyrrolidin-1-yl)ethyl)-N-methylacetamide], the inhibitory constant (Ki) in test [1] (setting [4]) turned out to be 0.05 nM. For the same molecule, in test [1] (setting [5]), the half-maximal inhibitory concentration (IC50) is 0.35 nM. In test [2], the inhibition at 10 µM was 99%. In test [3], the concentration for a half-maximal effect (EC50) is 0.06 nM.

On to `COCCN(CCOC)S(=O)(=O)Nc1cccc([C@@H](CN2CCCC2)N(C)C(=O)Cc2ccc(Cl)c(Cl)c2)c1` [Example 9, (S)—N-(1-(3-((N,N-bis(2-methoxyethyl)sulfamoyl)amino)phenyl)-2-(pyrrolidin-1-yl)ethyl)-2-(3,4-dichlorophenyl)-N-methylacetamide], for which the Ki in test [1] (setting [4]) was 0.47 nM. Further, the IC50 in test [1] (setting [5]) was 3.58 nM. Also, the inhibition at 10 µM in test [2] was 101%. This molecule also yielded an EC50 in test [3] of 0.5 nM.

Regarding `CN(C(=O)Cc1ccc(Cl)c(Cl)c1)[C@H](CN1CCCC1)c1cccc(NS(=O)(=O)c2cc(Cl)c(Cl)s2)c1` [Example 10, (S)-2-(3,4-dichlorophenyl)-N-(1-(3-(4,5-dichlorothiophene-2-sulfonamido)phenyl)-2-(pyrrolidin-1-yl)ethyl)-N-methylacetamide], the inhibition constant (Ki) in test [1] (setting [4]) came to 1.25 nM. Besides, the IC50 in test [1] (setting [5]) is 9.61 nM. Besides, the inhibition at 10 µM in test [2] turned out to be 95.9%. In test [3], this molecule returned a half-maximal effective concentration (EC50) of 3.74 nM.

Consider `CN(C(=O)C(c1ccccc1)c1ccccc1)[C@H](CN1CCCC1)c1cccc(NS(=O)(=O)CCOCC(F)(F)F)c1` [Example 11, (S)—N-methyl-2,2-diphenyl-N-(2-(pyrrolidin-1-yl)-1-(3-(2-(2,2,2-trifluoroethoxy)ethylsulfonamido)phenyl)ethyl)acetamide], for which the inhibition constant Ki in test [1] (setting [4]) came to 45 nM. In test [1] (setting [5]), the half-inhibitory concentration (IC50) came out at 345 nM. Moreover, the inhibition at 10 µM in test [2] worked out at 57.6%. For the same molecule, the concentration for a half-maximal effect (EC50) in test [3] was 28.8 nM.

Consider `CC(O)CS(=O)(=O)Nc1cccc([C@@H](CN2CCCC2)N(C)C(=O)C(c2ccccc2)c2ccccc2)c1` (stereo partly drawn) [Example 12, N-((1S)-1-(3-(2-hydroxypropylsulfonamido)phenyl)-2-(pyrrolidin-1-yl)ethyl)-N-methyl-2,2-diphenylacetamide], for which the inhibition constant Ki in test [1] (setting [4]) is 48.8 nM. Moreover, the IC50 in test [1] (setting [5]) was found to be 374 nM. Also, the inhibition at 10 µM in test [2] was found to be 47%. Also, in test [3], the 50% effective concentration (EC50) was found to be 18.5 nM.

On to `CC(O)CS(=O)(=O)Nc1cccc([C@@H](CN2CCCC2)N(C)C(=O)Cc2ccc(C(F)(F)F)cc2)c1` (stereo partly drawn) [Example 13, N-((1S)-1-(3-(2-hydroxypropylsulfonamido)phenyl)-2-(pyrrolidin-1-yl)ethyl)-N-methyl-2-(4-(trifluoromethyl)phenyl)acetamide], for which the inhibitory constant (Ki) in test [1] (setting [4]) turned out to be 0.1 nM. Also, the concentration for half-maximal inhibition (IC50) in test [1] (setting [5]) was 0.75 nM. In addition, the inhibition at 10 µM in test [2] stood at 95.4%. In test [3], this molecule showed a 50% effective concentration (EC50) of 0.067 nM.

Regarding `CN(C(=O)Cc1ccc(F)cc1F)[C@H](CN1CC[C@H](O)C1)c1ccc(OCCO)cc1` [Example 15, 2-(2,4-Difluorophenyl)-N-{(1S)-1-[4-(2-hydroxyethoxy)phenyl]-2-[(3S)-3-hydroxypyrrolidin-1-yl]ethyl}-N-methylacetamide], the inhibitory constant (Ki) in test [1] (setting [4]) worked out at 0.69 nM. In addition, in test [1] (setting [5]), the IC50 stood at 5.27 nM. In addition, the inhibition at 10 µM in test [2] turned out to be 23.5%. This molecule also gave a concentration for a half-maximal effect (EC50) in test [3] of 0.164 nM.

Regarding `Cc1ccc(CC(=O)N(C)[C@H](CN2CC[C@H](O)C2)c2ccc(OCCO)cc2)cn1` [Example 16, N-{(1S)-1-[4-(2-Hydroxyethoxy)phenyl]-2-[(3S)-3-hydroxypyrrolidin-1-yl]ethyl}-N-methyl-2-(6-methylpyridin-3-yl)acetamide], the Ki in test [1] (setting [4]) is 1.34 nM. The IC50 in test [1] (setting [5]) was 10.3 nM. Besides, the inhibition at 10 µM in test [2] came to 28.4%. The same molecule registered an EC50 in test [3] of 0.294 nM.

As for `CN(C(=O)Cc1nccs1)[C@H](CN1CC[C@H](O)C1)c1ccc(OCCO)cc1` [Example 18, N-{(1S)-1-[4-(2-Hydroxyethoxy)phenyl]-2-[(3S)-3-hydroxypyrrolidin-1-yl]ethyl}-N-methyl-2-(1,3-thiazol-2-yl)acetamide], the IC50 in test [1] was 135 nM. In addition, in test [1] (setting [4]), the Ki is 17.6 nM. In test [2], the inhibition at 10 µM was -3.2%. Besides, the concentration giving a half-maximal response (EC50) in test [3] worked out at 4.67 nM.

As to `CN(C(=O)Cc1ccc(F)cc1F)[C@H](CN1CC[C@H](OCCO)C1)c1ccc(OCCO)cc1` [Example 20, 2-(2,4-difluorophenyl)-N—((S)-1-(4-(2-hydroxyethoxy)phenyl)-2-((S)-3-(2-hydroxyethoxy)pyrrolidin-1-yl)ethyl)-N-methylacetamide], in test [1] (setting [4]), the Ki was determined as 7490 nM. Further, the IC50 in test [1] (inhibition of specific [3H]diprenorphine (1 nM) binding, one experiment in triplicate, read-out: Kappa Opioid Receptor IC50) stood at 57400 nM. The inhibition at 10 µM in test [2] is -29.4%. In test [3], the 50% effective concentration (EC50) was 2670 nM.

With `CN(C(=O)Cc1ccc(F)c(F)c1)[C@H](CN1CC[C@H](OCCO)C1)c1ccc(OCCO)cc1` [Example 21, 2-(3,4-Difluorophenyl)-N-{(1S)-1-[4-(2-hydroxyethoxy)phenyl]-2-[(3S)-3-(2-hydroxyethoxy)pyrrolidin-1-yl]ethyl}-N-methylacetamide], in test [1], the half-inhibitory concentration (IC50) turned out to be 1450 nM and the Ki is 189 nM. The inhibition at 10 µM in test [2] is 0%. For the same molecule, the concentration for a half-maximal effect (EC50) in test [3] was determined as 33.3 nM.

As to `CN([C@H](CN1CC[C@H](O)C1)c1ccc(OCCO)cc1)S(=O)(=O)Cc1ccc(Cl)c(Cl)c1` [Example 22, 1-(3,4-Dichlorophenyl)-N-{(1S)-1-[4-(2-hydroxyethoxy)phenyl]-2-[(3S)-3-hydroxypyrrolidin-1-yl]ethyl}-N-methylmethanesulfonamide], the Ki in test [1] (setting [4]) came out at 32.2 nM. For the same molecule, the half-inhibitory concentration (IC50) in test [1] (setting [5]) is 247 nM. The inhibition at 10 µM in test [2] was -10.3%. Moreover, a half-maximal effect in test [3] (EC50) was put at 15.5 nM.
